Among the data in patent US8921546B2, “Imidazolothiazole compounds for the treatment of disease” (Ambit Biosciences Corporation, priority 2006, dated 2014) are IC50 and Kd values, retold here.

The term Kd denotes the free concentration of one partner at which half of the binding sites on the other are occupied at equilibrium, for simple one-to-one binding.

One test concerns MV4-11 cells. The experiment in a line: Cellular proliferation assay (MTS), MV4-11. The test is classed as cell-based. The following applies: Homo sapiens. An excerpt:
Cellular Proliferation Assay
Cancer cell viability and proliferation can be evaluated using a tetrazolium salt reduction cell-based assay. In viable cells, this colorimetric assay can measure mitochondrial reduction of a tetrazolium component (MTS) into an […] formazan product.
This cell line was used to determine the ability of the compounds provided herein to inhibit Flt3 in intact cells. The RS4-11 cell line, which expresses the wild-type (WT) receptor, is also used as a control to verify the test compound's ability to inhibit the FLT3 receptor containing the ITD mutation.
MV4-11 cells were plated at 10,000 cells per well in DMEM medium with 0.5% serum. RS4-11 cells were plated at 20,000 cells per well in RPMI with 0.5% serum. […] An aliquot from each well of the compound plate was transferred to the plated cells and then incubated @ 37° C. in 5% CO2 (for 3 days for the MV4-11 cells, 2 days for the RS4-11 cells).
MTS tetrazolium compound (Owen's reagent) was thawed in a H2O bath. 20 μl of MTS tetrazolium was added to each well of optical plate and the cells were incubated @ 37° C. in 5% CO2 for 2 hours.

The next test has as its target T1, KIT (Homo sapiens, UniProt P10721).
T1 construct: made in house
The experiment in a line: Binding constant (Kd) measurement, phage-displayed kinase competition binding assay, KIT. The procedure:
(§1) Binding Constant (Kd) Measurements for Small-Molecule-Kinase Interactions
(§2) By testing across a large class of protein kinases, specificity of the kinase inhibitors provided herein is also determined. The components of the assays include various human kinases expressed as fusions to T7 bacteriophage particles and immobilized ligands that bind to the ATP site of the kinases. […] If the test compound binds the kinase, it competes with the immobilized ligand and prevents binding to the solid support. […] The results are read out by quantitating the amount of fusion protein bound to the solid support, which is accomplished by either traditional phage plaque assays or by quantitative PCR (qPCR) using the phage genome as a template.

In a further test the target is T2, FLT3 (Homo sapiens, UniProt P36888).
T2 construct: made in house
T2 sequence (P36888 27-993): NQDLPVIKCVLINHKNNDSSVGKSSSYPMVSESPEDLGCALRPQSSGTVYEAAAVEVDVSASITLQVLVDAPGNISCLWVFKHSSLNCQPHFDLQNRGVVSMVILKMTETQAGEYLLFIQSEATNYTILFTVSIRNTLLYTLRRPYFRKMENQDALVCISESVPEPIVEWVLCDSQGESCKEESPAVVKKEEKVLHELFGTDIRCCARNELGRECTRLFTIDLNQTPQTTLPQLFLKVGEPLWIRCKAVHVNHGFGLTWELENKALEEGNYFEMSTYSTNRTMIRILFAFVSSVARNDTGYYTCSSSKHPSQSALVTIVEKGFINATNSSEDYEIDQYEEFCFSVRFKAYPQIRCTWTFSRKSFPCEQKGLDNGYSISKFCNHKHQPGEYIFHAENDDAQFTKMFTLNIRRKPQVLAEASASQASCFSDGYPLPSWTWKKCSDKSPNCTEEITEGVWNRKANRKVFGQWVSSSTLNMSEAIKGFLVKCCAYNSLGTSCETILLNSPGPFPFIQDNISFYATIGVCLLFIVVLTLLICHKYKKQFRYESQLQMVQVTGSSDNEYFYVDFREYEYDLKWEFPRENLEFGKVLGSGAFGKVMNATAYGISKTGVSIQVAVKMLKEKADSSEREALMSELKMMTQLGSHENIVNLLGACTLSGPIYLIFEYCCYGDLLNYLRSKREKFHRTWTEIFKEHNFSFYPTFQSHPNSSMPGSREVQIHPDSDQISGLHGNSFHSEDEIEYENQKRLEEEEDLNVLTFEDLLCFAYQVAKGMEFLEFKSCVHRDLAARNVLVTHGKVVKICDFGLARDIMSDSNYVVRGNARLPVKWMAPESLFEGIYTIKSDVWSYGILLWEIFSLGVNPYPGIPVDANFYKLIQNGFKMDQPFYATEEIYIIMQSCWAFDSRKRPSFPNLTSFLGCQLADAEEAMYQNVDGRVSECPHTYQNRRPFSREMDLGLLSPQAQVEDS
The experiment in a line: Binding constant (Kd) measurement, phage-displayed kinase competition binding assay, FLT3. The procedure: as §1, §2

The target in the next test is T3, CSF1R (Homo sapiens, UniProt P07333).
T3 construct: made in house
T3 sequence (P07333 20-972): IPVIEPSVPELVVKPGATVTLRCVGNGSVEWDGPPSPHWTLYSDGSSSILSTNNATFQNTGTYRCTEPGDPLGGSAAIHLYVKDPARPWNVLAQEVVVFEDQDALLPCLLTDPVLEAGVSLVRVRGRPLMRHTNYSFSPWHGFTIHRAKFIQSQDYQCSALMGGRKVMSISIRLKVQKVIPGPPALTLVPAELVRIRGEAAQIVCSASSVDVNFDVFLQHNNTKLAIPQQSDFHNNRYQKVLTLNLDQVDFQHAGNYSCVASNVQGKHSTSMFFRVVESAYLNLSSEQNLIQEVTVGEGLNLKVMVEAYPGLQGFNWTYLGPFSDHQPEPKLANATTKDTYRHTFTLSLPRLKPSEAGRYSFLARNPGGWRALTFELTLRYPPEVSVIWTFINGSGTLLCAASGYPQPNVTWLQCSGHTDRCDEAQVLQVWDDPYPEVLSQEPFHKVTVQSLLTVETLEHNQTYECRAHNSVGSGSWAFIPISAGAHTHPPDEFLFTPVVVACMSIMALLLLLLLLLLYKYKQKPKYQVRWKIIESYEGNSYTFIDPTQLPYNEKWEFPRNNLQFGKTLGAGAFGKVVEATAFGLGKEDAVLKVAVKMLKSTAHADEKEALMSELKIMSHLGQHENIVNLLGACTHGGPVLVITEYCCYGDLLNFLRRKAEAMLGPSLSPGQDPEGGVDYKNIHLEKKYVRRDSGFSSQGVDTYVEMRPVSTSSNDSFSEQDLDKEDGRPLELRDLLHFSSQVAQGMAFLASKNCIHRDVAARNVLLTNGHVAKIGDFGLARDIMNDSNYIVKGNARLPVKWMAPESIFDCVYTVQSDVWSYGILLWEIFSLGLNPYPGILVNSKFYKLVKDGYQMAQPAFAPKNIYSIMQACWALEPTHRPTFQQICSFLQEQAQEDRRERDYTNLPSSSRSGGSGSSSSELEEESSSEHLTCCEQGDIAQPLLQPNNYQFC
The experiment in a line: Binding constant (Kd) measurement, phage-displayed kinase competition binding assay, CSF1R. The procedure:
as §1, §2

Setting [1] is: MV4-11 cells, 72 hour incubation, MTS, read-out: Cellular Assay MV-proliferation IC50.
[2] abbreviates: read-out: Binding Assay FLT3 Kd.

Where a name gives a salt, the structure may show the parent alone. Read-outs that look alike come from different tables or passages of the source. Bounds are passed on as bounds.

T1 sequence (P10721 26-976): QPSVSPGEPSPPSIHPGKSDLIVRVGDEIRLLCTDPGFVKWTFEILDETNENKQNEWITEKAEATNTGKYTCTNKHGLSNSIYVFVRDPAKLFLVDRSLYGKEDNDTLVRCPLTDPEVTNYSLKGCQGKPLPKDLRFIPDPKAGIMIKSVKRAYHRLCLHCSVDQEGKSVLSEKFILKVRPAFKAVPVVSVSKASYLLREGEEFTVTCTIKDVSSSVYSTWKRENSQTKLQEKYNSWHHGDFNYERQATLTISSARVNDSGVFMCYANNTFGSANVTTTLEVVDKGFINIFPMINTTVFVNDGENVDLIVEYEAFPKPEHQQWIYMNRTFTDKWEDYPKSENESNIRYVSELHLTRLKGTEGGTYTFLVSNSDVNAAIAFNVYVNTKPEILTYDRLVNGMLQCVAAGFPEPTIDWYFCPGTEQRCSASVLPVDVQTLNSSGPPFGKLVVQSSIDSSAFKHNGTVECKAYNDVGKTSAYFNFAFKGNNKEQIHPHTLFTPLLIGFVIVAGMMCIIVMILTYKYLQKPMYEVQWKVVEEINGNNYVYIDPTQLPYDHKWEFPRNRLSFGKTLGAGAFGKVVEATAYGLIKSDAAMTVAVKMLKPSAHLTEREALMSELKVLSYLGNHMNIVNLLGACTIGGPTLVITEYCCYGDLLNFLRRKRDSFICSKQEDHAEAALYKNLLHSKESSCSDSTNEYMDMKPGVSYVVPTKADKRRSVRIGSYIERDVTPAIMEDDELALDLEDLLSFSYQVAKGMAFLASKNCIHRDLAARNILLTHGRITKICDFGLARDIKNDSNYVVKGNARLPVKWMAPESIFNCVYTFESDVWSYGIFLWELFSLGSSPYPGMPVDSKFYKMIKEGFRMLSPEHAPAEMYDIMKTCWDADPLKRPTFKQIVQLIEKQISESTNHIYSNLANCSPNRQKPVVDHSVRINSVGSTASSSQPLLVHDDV

Take `CC(C)(C)c1cc(NC(=O)Nc2ccc(-c3cn4c(n3)sc3cc(OCCN5CCOCC5)ccc34)cc2)no1` [Compound B1, N-(5-tert-Butyl-isoxazol-3-yl)-N′-{4-[7-(2-morpholin-4-yl-ethoxy)imidazo[2,1-b][1,3]benzothiazol-2-yl]phenyl}urea]: the IC50 with MV4-11 cells (MV4-11, 72 h, read-out: Cellular Assay MV-proliferation IC50 (nM)) is less than 10 nM.
Regarding `CC(C)(C)c1cc(NC(=O)Nc2ccc(-c3cn4c(n3)sc3cc(OC(=O)[C@@H]5CCCN5)ccc34)cc2)no1` [Compound B6, (2S)-pyrrolidine-2-carboxylic acid 2-{4-[3-(5-tert-butyl-isoxazol-3-yl)-ureido]-phenyl}-benzo[d]imidazo[2,1-b]thiazol-7-yl ester], the results for the dissociation constant (Kd) at KIT and on FLT3 were 10 to 100 nM and less than 10 nM, respectively. The IC50 in the test with MV4-11 cells (setting [1]) was less than 10 nM.
As to `CN1CCN(CCCOc2ccc3c(c2)sc2nc(-c4ccc(NC(=O)Nc5cc(C(C)(C)C)on5)cc4)cn23)CC1` [Compound B9, 1-(5-tert-Butyl-isoxazol-3-yl)-3-(4-{7-[3-(4-methyl-piperazin-1-yl)-propoxy]-benzo[d]imidazo[2,1-b]thiazol-2-yl}-phenyl)-urea], the equilibrium dissociation constant (Kd) on KIT is 10 to 100 nM; at FLT3 (setting [2]), less than 10 nM. Also, the IC50 in the test on MV4-11 cells (setting [1]) is less than 10 nM.
`CC(C)(C)c1cc(NC(=O)Nc2ccc(-c3cn4c(n3)sc3cc(C(=O)NCCN5CCOCC5)ccc34)cc2)no1` [Compound C19, 2-{4-[3-(5-tert-butyl-isoxazol-3-yl)-ureido]-phenyl}imidazo[2,1-b][1,3]benzothiazole-7-carboxylic acid (2-morpholin-4-yl-ethyl)-amide hydrochloride]: the Kd at KIT was less than 10 nM; on CSF1R it was 10 to 100 nM. For the same compound, the IC50 in the test with MV4-11 cells (setting [1]) was less than 10 nM.
As for `CC(C)(C)c1cc(NC(=O)Nc2ccc(-c3cn4c(n3)sc3cc(CC(=O)O)ccc34)cc2)no1` [Compound C2, 2-{2-[4-({[(5-tert-Butylisoxazol-3-yl)amino]carbonyl}amino)phenyl]imidazo[2,1-b][1,3]benzothiazol-7-yl}acetic acid], the Kd on KIT and at FLT3 was less than 10 nM in each case. Moreover, in the test on MV4-11 cells (setting [1]), the IC50 is less than 10 nM.
As to `CCN(CC)CCOc1ccc2c(c1)sc1nc(-c3ccc(NC(=O)Nc4cc(C(C)(C)C)on4)cc3)cn12` [Compound B2, 1-(5-tert-Butyl-isoxazol-3-yl)-3-{4-[7-(2-diethylamino-ethoxy)-benzo[d]imidazo[2,1-b]thiazol-2-yl]-phenyl}-urea], the Kd at KIT and at FLT3 was less than 10 nM throughout. In the test on MV4-11 cells (setting [1]), the IC50 is less than 10 nM.
`CC(C)(C)c1cc(NC(=O)Nc2ccc(-c3cn4c(n3)sc3cc(F)ccc34)cc2)no1` [Compound A2, 1-(5-tert-butyl-isoxazol-3-yl)-3-[4-(7-fluoro-benzo[d]imidazo[2,1-b]thiazol-2-yl)-phenyl]-urea]: the IC50 with MV4-11 cells (setting [1]) is less than 10 nM. In addition, the Kd at FLT3 was 10 to 100 nM.
With `CC(C)(C)c1cc(NC(=O)Nc2ccc(-c3cn4c(n3)sc3cc(O)ccc34)cc2)no1` [Compound A4, 1-(5-tert-butyl-isoxazol-3-yl)-3-[4-(7-hydroxy-benzo[d]imidazo[2,1-b]thiazol-2-yl)-phenyl]-urea], the IC50 in the test with MV4-11 cells (setting [1]) is less than 10 nM. In addition, the Kd at FLT3 (setting [2]) is less than 10 nM.
As for `CC(C)(C)c1cc(NC(=O)Nc2ccc(-c3cn4c(n3)sc3cc(N5CCOCC5)ccc34)cc2)no1` [Compound A6, 1-(5-tert-Butyl-isoxazol-3-yl)-3-[4-(7-morpholin-4-yl-benzo[d]imidazo[2,1-b]thiazol-2-yl)-phenyl]-urea], in the test on MV4-11 cells (setting [1]), the IC50 was less than 10 nM. At FLT3, this compound gave a Kd of less than 10 nM.
Take `CN1CCN(c2ccc3c(c2)sc2nc(-c4ccc(NC(=O)Nc5cc(C(C)(C)C)on5)cc4)cn23)CC1` [Compound A7, 1-(5-tert-butyl-isoxazol-3-yl)-3-{4-[7-(4-methyl-piperazin-1-yl)-benzo[d]imidazo[2,1-b]thiazol-2-yl]-phenyl}-urea]: in the test on MV4-11 cells (setting [1]), the IC50 is less than 10 nM. The Kd on FLT3 (setting [2]) was less than 10 nM.
Regarding `CC(C)(C)c1cc(NC(=O)Nc2ccc(-c3cn4c(n3)sc3cc(CC(=O)NCCN5CCCC5)ccc34)cc2)no1` [Compound C15, 2-(2-{4-[3-(5-tert-butyl-isoxazol-3-yl)-ureido]-phenyl}-benzo[d]imidazo[2,1-b]thiazol-7-yl)-N-(2-pyrrolidin-1-yl-ethyl)-acetamide hydrochloride], the Kd at KIT is less than 10 nM; at CSF1R it was 10 to 100 nM. Besides, in the test with MV4-11 cells (setting [1]), the IC50 was less than 10 nM.
Consider `CN1CCN(CCOc2ccc3c(c2)sc2nc(-c4ccc(NC(=O)Nc5cc(C(C)(C)C)on5)cc4)cn23)CC1` [Compound B4, 1-(5-tert-Butyl-isoxazol-3-yl)-3-(4-{7-[2-(4-methyl-piperazin-1-yl)-ethoxy]-benzo[d]imidazo[2,1-b]thiazol-2-yl}-phenyl)-urea hydrochloride], for which the Kd on KIT and on FLT3 (setting [2]) was less than 10 nM throughout. Also, the IC50 with MV4-11 cells (setting [1]) was less than 10 nM.
Take `CC(C)(C)c1cc(NC(=O)Nc2ccc(-c3cn4c(n3)sc3cc(OCCN5CCCCC5)ccc34)cc2)no1` [Compound B3, 1-(5-tert-Butyl-isoxazol-3-yl)-3-{4-[7-(2-piperidin-1-yl-ethoxy)-benzo[d]imidazo[2,1-b]thiazol-2-yl]-pheny}-urea hydrochloride]: the Kd at KIT and on FLT3 (setting [2]) was less than 10 nM in each case. The IC50 with MV4-11 cells (setting [1]) is less than 10 nM.
Consider `Cc1ccc2c(c1)sc1nc(-c3ccc(NC(=O)Nc4cc(C(C)(C)C)on4)cc3)cn12` [Compound A3, 1-(5-tert-butyl-isoxazol-3-yl)-3-[4-(7-methyl-benzo[d]imidazo[2,1-b]thiazol-2-yl)-phenyl]-urea], for which, in the test with MV4-11 cells (setting [1]), the IC50 is less than 10 nM. At FLT3, this compound returned an equilibrium dissociation constant (Kd) of less than 10 nM.
As to `COc1ccc2c(c1)sc1nc(-c3ccc(NC(=O)Nc4cc(C(C)(C)C)on4)cc3)cn12` [Compound A5, 1-(5-tert-butyl-isoxazol-3-yl)-3-[4-(7-methoxy-benzo[d]imidazo[2,1-b]thiazol-2-yl)-phenyl]-urea], the IC50 with MV4-11 cells (setting [1]) was less than 10 nM. Besides, the Kd at FLT3 is less than 10 nM.
Take `CC(C)(C)c1cc(NC(=O)Nc2ccc(-c3cn4c(n3)sc3ccccc34)cc2)no1` [Compound A1]: the IC50 with MV4-11 cells (setting [1]) is less than 10 nM. Further, on FLT3 (setting [2]), the Kd was less than 10 nM.
Take `CCN1CCN(CCCc2ccc3c(c2)sc2nc(-c4ccc(NC(=O)Nc5cc(C(C)(C)C)on5)cc4)cn23)CC1` [Compound D1, N-(5-tert-Butyl-isoxazol-3-yl)-N′-(4-{7-[3-(4-ethyl-piperazin-1-yl)propyl]imidazo[2,1-b][1,3]benzothiazol-2-yl}phenyl)urea hydrochloride]: the Kd on KIT is less than 10 nM. In addition, in the test with MV4-11 cells (setting [1]), the IC50 was less than 10 nM.
For the compound `CC(C)(C)c1cc(NC(=O)Nc2ccc(-c3cn4c(n3)sc3cc(C(=O)NCCN5CCCCC5)ccc34)cc2)no1` [Compound C20, 2-{4-[3-(5-tert-butyl-isoxazol-3-yl)-ureido]-phenyl}-imidazo[2,1-b][1,3]benzothiazole-7-carboxylic Acid (2-Piperidin-1-yl-ethyl)-amide hydrochloride], the dissociation constant Kd is less than 10 nM at KIT and 10 to 100 nM on CSF1R. Besides, the IC50 in the test with MV4-11 cells (setting [1]) is less than 10 nM.
Regarding `CCOC(=O)Cc1ccc2c(c1)sc1nc(-c3ccc(NC(=O)Nc4cc(C(C)(C)C)on4)cc3)cn12` [Compound C1, Ethyl 2-{2-[4-({[(5-tert-Butylisoxazol-3-yl)amino]carbonyl}amino)phenyl]imidazo[2,1-b][1,3]benzothiazol-7-yl}acetate], the dissociation constant Kd on KIT and on FLT3 was less than 10 nM in each case. The IC50 with MV4-11 cells (setting [1]) is less than 10 nM.
